Source: PubChem BioAssay AID624491 (Broad Institute, 2012)
Activity calls are given as the source filed them.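 Rule for the calls: active = fitted curve crossing a set activation limit at or below the highest valid dose tested; inconclusive = flat fit at 30 to 70% activation, or poor fit; inactive = the rest, including signal decreases.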

Test system: D54 ERlucT glycosylation luciferase reporter, luminescence, 24 h
Assay: N-linked glycosylation inhibitors, luciferase reporter, dose response, D54 ERlucT cells, luminescence, cherry-picks (AID 624491);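 note: signal gain reflects blocked N-linked glycosylation of a luciferase reporter; actives raise luciferase signal so AC26 marks activators of the reporter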

Compound | AC26
Cn1c(C(=O)OCC(=O)NCc2ccc(F)cc2)cc2occc21 | 8970 nM
CCOc1cc(C(=O)Nc2ccc(N3CCOCC3)cc2)cc(Br)c1OC | 2770 nM
CCCOc1ccccc1C1CC(=O)NC2=C1C(=O)CCC2 (configuration not stated) | 2250 nM
Cc1ccc(-c2nc3ncccc3o2)cc1NC(=O)c1ccc([N+](=O)[O-])o1 | 4010 nM
COc1ccccc1NC(=O)c1cnc(SCC(=O)NCC2CCCO2)n(C)c1=O (configuration not stated) | 1970 nM
CCOC(=O)C1CCN(c2c(N3CCN(Cc4ccccc4)CC3)c(=O)c2=O)CC1 | 1810 nM
O=C(Nc1ccc(Cl)cn1)c1cccc(F)c1 | 6980 nM
O=C(Nc1cccc(NC(=O)c2cccs2)c1)c1ccc([N+](=O)[O-])o1 | 1820 nM
Cc1cccc2sc(NC(=O)c3cc(S(=O)(=O)N(C)C)ccc3N3CCCC3)nc12 | 157 nM
O=C(C=Cc1ccccn1)c1ccccc1O | 1250 nM
COc1ccc(C(=O)/C=C/c2ccc(-c3ccccc3)cc2)cc1CSCC(=O)O | 1480 nM
CC(=O)Nc1cc(-c2cccc(C(=O)N(C)C)c2)cn2c(-c3cccc(C(=O)N(C)C)c3)cnc12 | 897 nM
CCN(CC(=O)Nc1ccccc1-c1ccccc1)Cc1nc2ccccc2c(=O)[nH]1 | 1470 nM
COc1cc(/C=C2\SC(=S)N(CCC(=O)N3CCCCC3)C2=O)cc(OC)c1OC | 6840 nM
Cc1cccn2c(=O)c3cc(C(=O)NC4CCCCC4)n(C)c3nc12 | 10200 nM
COc1cc(N)ccc1Nc1c2ccccc2nc2ccccc12 | 70 nM
Cc1ccc(C(=O)NCc2nnc(SCC(=O)NC(C)c3ccccc3)n2C)cc1 (configuration not stated) | 3980 nM
CCN(CC)CCNc1ccc(CO)c2oc3ccccc3c(=O)c12 | 1280 nM
CCCCCCC(=O)N(O)C1CC(=O)N(c2ccc(C)cc2)C1=O (configuration not stated) | 3990 nM
Cc1cccc(N2C(=O)N3[C@H](c4ccc(F)cc4)[C@@H]4C(=O)N(C5CCCCC5)C(=O)[C@@H]4[C@]3(Cc3ccccc3)C2=O)c1 | 692 nM
Cc1nn(C(C)(C)C)c(OC(=O)c2ccc3c(c2)OCO3)c1Sc1ccccc1 | 3070 nM

Compound | AC26
C[C@@]12C(=O)Nc3ccc(Br)cc3C(=O)N1[C@H]1c3ccccc3OC[C@@H]1[C@@H]2c1ccccc1 | 368 nM
CN(C)c1ccc(-c2ccnc3c2CC(C)(C(=O)NCc2ccccc2)O3)cc1 (configuration not stated) | 5530 nM
CSc1ncnc2c1ncn2CCCN[C@H](C)c1cccc2ccccc12 | 679 nM
Cn1c(SCC(=O)c2ccc(F)cc2)ncc(C(=O)Nc2ccccc2)c1=O | 4770 nM
O=C(N/N=C/c1cccs1)c1cc(-c2cccc3ccccc23)n[nH]1 | 4700 nM
CCOc1cc(-c2cc(-c3ccccc3)nc(N)c2C#N)ccc1O | 2480 nM
C=CCn1c(O)c(/C=C2/C=CC=N2)c(=O)[nH]c1=O | 3080 nM
CC(C)CN(C(=O)COC(=O)CCSc1ccc(Cl)cc1)c1c(N)n(Cc2ccccc2)c(=O)[nH]c1=O | 4450 nM
Cc1cc(Nc2cc(Cl)cc(Cl)c2)nc(N)n1 | 1280 nM
CC(C)(C)S(=O)(=O)N1C[C@@H]2CC/C=C\C/C(c3ccccc3)=C\2[C@H]1CCO | 1050 nM
O=C1CC(c2ccccc2F)c2cc3c(cc2N1)CCC3 (configuration not stated) | 938 nM
COc1ccccc1N1CCN(C(=O)c2[nH]c(C(F)(F)F)nc2-c2ccccc2)CC1 | 2770 nM
CC(Oc1ccc2c(c1)c1ccnc3c4ccccc4c(=O)n2c13)C(=O)NCCN1CCOCC1 (configuration not stated) | 6140 nM
O=C(NCc1cccs1)C1CCN(c2ccc(S(=O)(=O)N3CCOCC3)cc2Cl)CC1 | 646 nM
CCN(CC)S(=O)(=O)c1ccc(-c2nnc(SCC(=O)N3CCc4ccccc43)o2)cc1 | 1460 nM
O=C(CN1C(=O)/C(=C\c2ccc(F)cc2)Oc2ccccc21)N1CCN(c2ccccn2)CC1 | 4740 nM
Cc1ccc(C(=O)N/C(=C\c2cccs2)C(=O)NCCc2c[nH]c3ccccc23)cc1C | 4860 nM
O=C(Cc1ccc(-c2ccccc2)cc1)NCc1ccccc1 | 27.8 nM
Cc1cccc(NC(=O)Nc2cccc(C#N)c2)n1 | 4060 nM
COc1ccc2nc3n(c(=O)c2c1)-c1cc2ccccc2cc1C(=O)NC3Cc1ccccc1 (configuration not stated) | > 19500 nM (inactive)
CC(C)CCN(C(=O)Cc1ccc(Cl)c(Cl)c1)c1c(N)n(Cc2ccccc2)c(=O)[nH]c1=O | 2080 nM
